In ChEMBL document CHEMBL1201862, “PubChem BioAssay data set” (2004):
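Each compound was tested at five concentrations against cells in 96-well plates for 48 hours. GI50: concentration for 50% inhibition of growth.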 Activity calls are given as the source filed them. Cut-off read from the data, not from the text of the source: active = GI50 up to about 1.1 µM and inactive = higher.

What was measured:
Experiment in all cases: NCI anticancer screen, dose series, 48 h
[1] = system: IGROV-1
[2] = system: HT-29
[3] = system: CCRF-CEM
[4] = system: TK-10
[5] = system: SF-295
[6] = system: NCI-H522
[7] = system: UACC-257
[8] = system: CAKI-1
[9] = system: HCC 2998
[10] = system: SN12C
[11] = system: OVCAR-3
[12] = system: MCF7
[13] = system: HCT-116
[14] = system: SNB-75
[15] = system: A498
[16] = system: SK-MEL-2
[17] = system: MOLT-4
[18] = system: DU-145
[19] = system: K562
[20] = system: HCT-15

Measured: GI50

CCCCC(=O)Oc1ccc2c(C)cc(=O)oc2c1
inactive: [1] > 100 µM | [2] > 100 µM | [3] > 100 µM | [4] > 100 µM | [5] > 100 µM | [6] > 100 µM | [7] > 100 µM | [8] > 100 µM | [9] 88.9 µM | [10] > 100 µM | [11] > 100 µM | [12] > 100 µM | [13] > 100 µM | [14] > 100 µM | [15] > 100 µM | [16] > 100 µM | [17] > 100 µM | [18] > 100 µM | [19] > 100 µM

O=C(CC(C(=O)c1ccoc1)c1ccco1)c1ccco1 (stereo not drawn)
inactive: [1] > 100 µM | [2] > 100 µM | [3] 24.2 µM | [4] > 100 µM | [5] > 100 µM | [6] > 100 µM | [7] > 100 µM | [8] > 100 µM | [9] > 100 µM | [10] > 100 µM | [11] > 100 µM | [12] > 100 µM | [13] > 100 µM | [14] > 100 µM | [15] > 100 µM | [17] > 100 µM | [18] > 100 µM | [19] > 100 µM
> 100 µM: [20]

OCCOCn1nncc1Cn1ncc2c(O)ncnc21
> 100 µM: [20]
inactive: [1] > 100 µM | [2] 40 µM | [4] > 100 µM | [5] > 100 µM | [6] 60.8 µM | [7] > 100 µM | [8] > 100 µM | [9] > 100 µM | [10] > 100 µM | [11] 28.6 µM | [12] 48.8 µM | [13] > 100 µM | [14] > 100 µM | [15] > 100 µM | [16] 54.1 µM | [17] 40 µM | [18] 43.7 µM | [19] 43.6 µM

CCN(CC)CCn1c2cc3c(cc2c(=O)c2cccnc21)OCO3
inactive: [1] 4.88 µM | [2] 4.04 µM | [3] 5.31 µM | [4] 6.01 µM | [5] 4.71 µM | [6] 6.71 µM | [7] 6.1 µM | [8] 9.14 µM | [9] 9.04 µM | [10] 6.4 µM | [11] 5.14 µM | [12] 3.89 µM | [13] 4.79 µM | [14] 3.83 µM | [15] 3.91 µM | [16] 9.91 µM | [17] 3.68 µM | [18] > 10 µM
3.72 µM: [20]

C=C1[C@H](OCC(C)C)[C@@H](OCC(C)C)[C@@H](O)C(C)(C)/C=C/[C@H](C)C(=O)[C@@]2(O)C[C@H](C)[C@H](O)[C@@H]2[C@H]1OCC(C)C
inactive: [4] 5.78 µM | [5] 2.51 µM | [6] > 7.5 µM | [7] > 7.5 µM | [8] 2.57 µM | [9] > 7.5 µM | [10] > 7.5 µM | [11] > 7.5 µM | [12] > 7.5 µM | [13] > 7.5 µM | [14] 3.02 µM | [15] 3.23 µM | [16] > 7.5 µM | [18] > 7.5 µM
active: [17] 0.676 µM | [19] 0.538 µM
6.92 µM: [20]

Cc1c(C)c(C)c(-n2c(=O)n(C)c(=O)n2-n2c(=O)n(C)c(=O)n2-c2c(C)c(C)c(C)c(C)c2C)c(C)c1C
> 100 µM: [20]
inactive: [1] 51.5 µM | [2] > 100 µM | [4] > 100 µM | [6] 44.2 µM | [7] > 100 µM | [8] > 100 µM | [9] > 100 µM | [10] > 100 µM | [11] > 100 µM | [12] > 100 µM | [13] > 100 µM | [14] > 100 µM | [15] > 100 µM | [16] > 100 µM | [17] 40 µM | [18] > 100 µM | [19] > 100 µM

N=C1N(S(=O)(=O)c2ccccc2)[C@@H](Cc2ccccc2)[C@H](c2ccccc2)C1(c1ccccc1)c1ccccc1
inactive: [1] > 100 µM | [2] > 100 µM | [3] 27.2 µM | [4] > 100 µM | [5] > 100 µM | [6] 39.5 µM | [7] 35.6 µM | [8] > 100 µM | [9] 27.2 µM | [10] > 100 µM | [11] 10.4 µM | [12] > 100 µM | [13] 40.4 µM | [14] > 100 µM | [15] > 100 µM | [16] > 100 µM | [17] 16.8 µM | [18] > 100 µM | [19] 71.1 µM
> 100 µM: [20]

CCOC(=O)CCC(NC(=O)c1ccc(N2CCN(c3c(C)nc(N)nc3N)CC2)cc1)C(=O)OCC (stereo not drawn)
active: [1] 0.113 µM | [3] 0.109 µM | [12] 0.685 µM | [13] 0.0527 µM | [17] 0.186 µM | [19] < 0.01 µM
3.36 µM: [20]
inactive: [2] 3.15 µM | [4] > 100 µM | [6] 11 µM | [7] 15.6 µM | [8] 2.52 µM | [9] 10.6 µM | [10] > 22.5 µM | [11] > 21.2 µM | [14] > 37.1 µM | [15] 65.2 µM | [16] > 100 µM | [18] > 100 µM

COC(=O)[C@@](C)(COC(=O)C(C)(C)C)NC(=O)OC(C)(C)C
inactive: [1] > 100 µM | [2] > 100 µM | [3] > 100 µM | [4] > 100 µM | [5] > 100 µM | [6] > 100 µM | [7] > 100 µM | [8] > 100 µM | [9] > 100 µM | [10] > 100 µM | [12] > 100 µM | [13] > 100 µM | [14] > 100 µM | [15] > 100 µM | [16] > 100 µM | [17] > 100 µM | [18] > 100 µM | [19] > 100 µM
> 100 µM: [20]

COc1cc(C(=O)N(C(=S)OC23CC4CC(CC(C4)C2)C3)c2ccccc2)cc(OC)c1OC
26.5 µM: [20]
inactive: [2] 17.7 µM | [3] 2.89 µM | [4] 42.8 µM | [5] 22.1 µM | [6] 3.95 µM | [7] 26.4 µM | [8] 31.3 µM | [9] 23.4 µM | [10] 28.6 µM | [11] 28.1 µM | [12] 29.4 µM | [13] 16.1 µM | [14] 66.1 µM | [15] 24.9 µM | [16] 15.2 µM | [17] 2.82 µM | [18] 58.9 µM | [19] 2.75 µM

CC(C)(C)OC(=O)NC(CS(=O)(=O)O)C(=O)O (stereo not drawn)
inactive: [1] > 100 µM | [2] > 100 µM | [3] > 100 µM | [4] > 100 µM | [5] > 100 µM | [6] > 100 µM | [7] > 100 µM | [8] > 100 µM | [9] > 100 µM | [10] > 100 µM | [11] > 100 µM | [12] > 100 µM | [13] > 100 µM | [14] > 100 µM | [15] > 100 µM | [16] > 100 µM | [17] > 100 µM | [18] > 100 µM | [19] > 100 µM
> 100 µM: [20]
